# Assay results: US12121530B2, “Composition and methods for treating articulating joint disorders with nucleoside reverse transcriptase inhibitors” (RHODE ISLAND HOSPITAL, priority 2018, dated 2024)
# “Also recorded” adds a separate entry of the source.
# Tests used:
# [1] = system: mouse primary chondrocytes; assay: RT-qPCR gene expression in mouse primary chondrocytes treated with 3TC or FTC at various dosages; type: cell-based
# Method: Rib cages were sterilely isolated from neonatal mice (within 7-day-old) of desired genotypes and rinsed with HBSS for five times. To remove unspecific tissues, rib cages were digested in Collagenase D (3 μg/mL, Roche, Cat. 11088882001, Mannheim, Germany) for 2-4 hrs at 37° C. and rinsed with HBSS (Gibco®, Grand Island, N.Y. 14072 USA) for five times to remove detached unspecific tissues. To detach chondrocytes from rib cages, the samples underwent secondary digestion in Collagenase D (3 μg/mL) for at least 4 hrs at 37° C. with constant agitation (200 rpm). Detached chondrocytes were pelleted to remove excessive Collagenase D and resuspended in complete medium of DMEM (Gibco®, Grand Island, N.Y. 14072 USA) which contains 10% FBS, 100 U/mL penicillin and 100 μg/mL streptomycin (Gibco®, Grand Island, N.Y. 14072 USA). Growth plate PCs were grown at 37° C. in an atmosphere of 5% CO2. The media was changed on the following day to remove remaining Collagenase D and every 3 days thereafter. Similarly, articular cartilages were sterilely isolated under dissection microscope from neonatal mice (within 7-day-old) of desired genotypes and rinsed with HBSS for five times. In brief, the skins of hindlimbs were removed and transections on Ilia and muscles around hip joints were made to detach hindlimbs from torsi, then transferred to a petri dish. Under a dissection microscope placed in a cell culture hood, soft tissues were cleared while knee and hip joints were exposed. Femur heads could be easily peeled off whilst a fine cut of epiphyses based on vascularization were made to isolate articular cartilage from secondary ossification center. Beyond that, isolated tissues were minced into finer fragments and then put together before undergoing HBSS rinse and subsequent Collagenase D digestion. To remove unspecific tissues, articular cartilages were minced and digested in Collagenase D (3 μg/mL) for 2 hrs at 37° C. and rinsed with HBSS for five times to remove detached unspecific tissues. To detach chondrocytes from cartilage matrix, the samples underwent secondary digestion in Collagenase D (3 μg/mL) for at least 4 hrs at 37° C. with constant agitation (200 rpm). Detached chondrocytes were pelleted to remove excessive Collagenase D and resuspended in complete medium of DMEM which contains 10% FBS, 100 U/mL penicillin and 100 μg/mL streptomycin. Articular PCs were grown at 37° C. in an atmosphere of 5% CO2. The media was changed on the following day to remove remaining Collagenase D and every 3 days thereafter. Both miRNA and mRNA were extracted using miRNeasy Mini Kit (Qiagen®, Germantown, Md., USA) and reversely transcribed using […] (Qiagen®, Germantown, Md., USA) according to manufacturer's instruction. qPCR was performed using SYBR Green PCR master mix (Qiagen®, Germantown, Md., USA) on a Bio-Rad CFX96 real-time PCR detection system (Bio-Rad®, Hercules, Calif., USA). Amplification conditions are as follows: 95° C. for 10 min, 40 cycles of 95° C. for 10'', 55° C. for 30'', and 72° C. for 30''. 18S ribosomal or GAPDH RNA was used as an internal control gene to normalize the mRNAs level. The ubiquitously expressed snRNA U6 was used as an endogenous control for miRNAs level. […] The primers for miR-365 were purchased from Qiagen. Fold changes of mRNA and miRNAs were calculated by the 2^^(ΔΔCt) method and normalized to 18S/GAPDH or U6 snRNA, respectively.
# HIV patients = assay: summary data of NRTI on OA in HIV patients; type: in vivo, human; details: HIV patients, older than 50, dosage dependent, both male and female
# Source text: Medical provider diagnoses of ICD-9-CM 715 [osteoarthrosis and allied disorders] include the following definitions: 1) strict=ICD-9-CM 715; 2) expanded=ICD-9-CM 715, 716 [other and unspecified arthropathies], OR 719 [other and unspecified disorders of joint]); and 3) probable=strict OR expanded+respondent-reported prior diagnosis of OA or other arthritis excluding rheumatoid arthritis (RA).
# [2] = system: mouse femur articular cartilage; assay: femur explant organ culture with 3TC or FTC, RT-qPCR of articular cartilage; type: cell-based; details: 10 μM 3TC or 25 μM FTC, 48 hrs
# Source text: Femurs were obtained from 21-day-old WT C57BL/6 mice. Femurs with intact articular surface and periosteum was sterilely dissected under microscope. Upon harvesting, femurs were rinsed with HBSS (Gibco®, Grand Island, N.Y. 14072 USA) and then submerged into DMEM (Gibco, Grand Island, N.Y. 14072 USA) medium supplemented with 10% fetal bovine serum (FBS, Gibco®, Grand Island, N.Y. 14072 USA) in 12-well culture dishes. The first-generation cytidine analogue/NRTI-3TC or newest-generation cytidine analogue/NRTI-FTC was added into the medium with desired concentrations. After a total of 48 hrs incubation at 37° C. in an atmosphere of 5% CO2, femurs were rinsed with HBSS and articular cartilage was peeled off using surgical scalpels under dissecting microscope for RNA extraction. Both miRNA and mRNA were extracted using miRNeasy Mini Kit (Qiagen®, Germantown, Md., USA) and reversely transcribed using […] (Qiagen®, Germantown, Md., USA) according to manufacturer's instruction. qPCR was performed using SYBR Green PCR master mix (Qiagen®, Germantown, Md., USA) on a Bio-Rad CFX96 real-time PCR detection system (Bio-Rad®, Hercules, Calif., USA). Amplification conditions are as follows: 95° C. for 10 min, 40 cycles of 95° C. for 10'', 55° C. for 30'', and 72° C. for 30''. 18S ribosomal or GAPDH RNA was used as an internal control gene to normalize the mRNAs level. The ubiquitously expressed snRNA U6 was used as an endogenous control for miRNAs level. […] The primers for miR-365 were purchased from Qiagen. Fold changes of mRNA and miRNAs were calculated by the 2^^(ΔΔCt) method and normalized to 18S/GAPDH or U6 snRNA, respectively.
# [3] = mouse primary chondrocytes, RNA level, various dosages
# [4] = mouse chondrocytes, at lower than 100 μM concentrations
Compound,"Acan expression [1, 3]","Adamts5 expression [1, 3]","Col2 (Col2a1) expression [1, 3]","Col10 (Col10a1) expression [1, 3]","Ifn-α (Inf-α) expression [1, 3]","Line-1 expression [1, 3]","Mmp13 expression [1, 3]",strict OA (ICD-9-CM 715) (HIV patients),Acan expression [2],Adamts5 expression [2],Col2 (Col2a1) expression [2],Col10 (Col10a1) expression [2],Ifn-α mRNA level [2],Ihh mRNA level [2],Line-1 (L1) levels [2],Mmp3 mRNA level [2],Mmp13 expression [2],also measured
"Nc1ccn([C@@H]2CS[C@H](CO)O2)c(=O)n1 [3TC, lamivudine]",stimulated,suppresses; also recorded: inhibited,promotes; also recorded: stimulated,suppresses; also recorded: inhibited,suppresses,suppresses; also recorded: inhibited,inhibited,inhibiting,induces; also recorded: increased,inhibiting; also recorded: significantly inhibited,induces; also recorded: increased,inhibiting; also recorded: significantly inhibited,significantly inhibited,significantly inhibited,inhibiting; also recorded: significantly inhibited,significantly inhibited,inhibiting; also recorded: significantly inhibited,
"Nc1nc(=O)n([C@@H]2CS[C@H](CO)O2)cc1F [FTC, 2′,3′-dideoxy-5-fluoro-3′-thiacytidine]",promotes,induces,promotes,induces,suppresses; also recorded: significantly inhibited,suppresses; also recorded: significantly inhibited,induces,inhibiting,induces; also recorded: increased,inhibits; also recorded: significantly inhibited,increased,significantly inhibited,significantly inhibited,significantly inhibited,significantly inhibited,significantly inhibited,inhibits; also recorded: significantly inhibited,"Acan levels [1, 4]: increased; Col2a1 levels [1, 4]: increased; Mmp3 expression [1, 3]: induces; Nlrp3 expression [1, 3]: suppresses; also recorded: significantly inhibited; P2rx7 expression [1, 3]: suppresses; also recorded: significantly inhibited"
